These results are taken from ChEMBL document CHEMBL3886411, “Heterocyclic derivative and pharmaceutical composition comprising the same” (2015).

This test addresses T1, P2X purinoceptor 3 (Homo sapiens, UniProt P56373).
T1 sequence (P56373 whole entry): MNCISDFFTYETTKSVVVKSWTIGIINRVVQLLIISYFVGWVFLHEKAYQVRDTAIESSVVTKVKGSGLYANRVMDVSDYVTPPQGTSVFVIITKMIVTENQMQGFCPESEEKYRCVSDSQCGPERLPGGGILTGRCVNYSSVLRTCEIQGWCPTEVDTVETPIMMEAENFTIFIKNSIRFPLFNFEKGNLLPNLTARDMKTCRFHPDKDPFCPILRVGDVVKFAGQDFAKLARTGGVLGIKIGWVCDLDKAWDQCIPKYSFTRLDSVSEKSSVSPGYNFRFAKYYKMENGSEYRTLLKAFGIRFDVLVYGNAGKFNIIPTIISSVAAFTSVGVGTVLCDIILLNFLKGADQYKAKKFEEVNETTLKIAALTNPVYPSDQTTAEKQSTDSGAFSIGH
Description: Inhibition Assay: Stably expressing cell line (C6BU-1 cell transfected with human P2X3 receptor gene (GenBank accession number Y07683) was used. The cells were seeded in a 96-well microtiter plate at a concentration of 8000 cells/well and cultured in the medium (8.3% fetal bovine serum, 8.3% horse serum, 1% antibiotic and antifungal in DMEM) for one day at 37° C. under 5% carbon dioxide atmosphere. The medium was replaced with 4 μM Fluo-3-AM solution (20 mM HEPES, 137 mM NaCl, 2.7 mM KCl, 0.9 in M MgCl2, 5.0 mM CaCl2, 5.6 D-glucose, 2.5 mM probenecid, 1.0% BSA, and 0.08% Pluronic F-127, pH 7.5) and incubated at 37° C. under 5% dioxide carbon atmosphere for one hour. The plate was washed with washing buffer (20 mM HEPES, 137 mM NaCl, 2.7 mM KCl, 0.9 mM MgCl2, 5.0 mM CaCl2, 5.6 mM D-glucose, 2.5 mM probenecid, pH 7.5), and each well was added with 40 μL of this buffer. The plate was placed in High-Throughput Screening System FDSS 3000 (Hamamatsu Photonics K.K.). Measurement of fluorescence inte.

In general, IC50 refers to the point on the concentration scale where inhibition reaches its midpoint.

The structures appear in SMILES notation.

`CCOC(=O)c1cnc(Nc2ccc(OC(C)C)c(F)c2)n(Cc2ccc(Cl)cc2)c1=O`: the half-maximal inhibitory concentration (IC50) is 0.071 µM.

For the molecule `CCOC(=O)c1cn(Cc2ccc(Cl)cc2)c(Nc2ccc(OC(C)C)c(F)c2)nc1=O`, half-maximal inhibition (IC50) required 0.108 µM. Next, `CCOC(=O)Nc1cnc(Nc2ccc(OC(C)C)c(F)c2)n(Cc2ccc(Cl)cc2)c1=O`: 0.033 µM.
